Data published in ChEMBL document CHEMBL4665827, “Discovery of Small-Molecule Inhibitors of Receptor Activator of Nuclear Factor-κB Ligand with a Superior Therapeutic Index” (J Med Chem, 2020).
pKd: −log10 of the molar value. Active and inactive are the calls of the source. No cut-off for these calls is given here.

Key:
[1] = target: T1, Tumor necrosis factor ligand superfamily member 11 (Homo sapiens) (UniProt O14788); assay: Inhibition of human RANKL-induced osteoclastogenesis in RANKL cultured mouse bone marrow cells assessed as reduction in RANKL/M-CSF-induced TRAP activity at 5 uM preincubated with RANKL for 1 hr followed by cell addition and subsequent media replenishment every 48 hrs for 4 days; assay type: cell-based; settings: time 4.0 day
T1 sequence (whole entry): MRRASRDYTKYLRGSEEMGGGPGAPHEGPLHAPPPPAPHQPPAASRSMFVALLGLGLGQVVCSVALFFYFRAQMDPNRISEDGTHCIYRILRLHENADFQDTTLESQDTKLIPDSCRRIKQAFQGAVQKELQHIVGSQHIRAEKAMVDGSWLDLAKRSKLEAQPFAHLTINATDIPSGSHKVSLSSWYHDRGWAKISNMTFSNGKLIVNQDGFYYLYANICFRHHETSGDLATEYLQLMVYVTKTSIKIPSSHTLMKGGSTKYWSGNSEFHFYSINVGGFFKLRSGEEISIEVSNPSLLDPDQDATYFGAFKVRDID

[2] = target: T2, Tumor necrosis factor ligand superfamily member 11 (Homo sapiens, UniProt O14788); assay: Binding affinity to GST-fused human RANKL extracellular domain (Lys159 to Asp317 residues) expressed in Escherichia coli BL21(DE3) pLysS by fluorescence spectrophotometric assay; settings: for pKd: read-out: Kd
T2 sequence (O14788 whole entry): T1 sequence (whole entry)

[3] = Therapeutic index, ratio of LC50 for mouse bone marrow cells to IC50 for Inhibition of human RANKL-induced osteoclastogenesis in RANKL cultured mouse bone marrow cells; assay type: toxicity; settings: read-out: Ratio LC50/IC50
[4] = Cytotoxicity against mouse BMMC assessed as reduction in cell viability measured after 48 hrs by MTT assay; assay type: cell-based; settings: mouse BMMC (bone marrow cells), read-out: LC50
BMMC = assay: Cytotoxicity against mouse BMMC assessed as reduction in cell viability at 5 uM measured after 48 hrs by MTT assay; assay type: cell-based
[5] = target: T1, Tumor necrosis factor ligand superfamily member 11 (Homo sapiens); assay: Inhibition of human RANKL-induced osteoclastogenesis in RANKL cultured mouse bone marrow cells assessed as reduction in RANKL/M-CSF-induced TRAP activity preincubated with RANKL for 1 hr followed by cell addition and subsequent media replenishment every 48 hrs for 4 days; assay type: cell-based; settings: time 4.0 day

Row | Compound | inhibition [1] | pKd [2] | CC50 at 48 h [4] [µM] | Kd [2] | further results
1 | Cc1ccc2occ(CN3CCN(Cc4cn(-c5cccc(C(F)(F)F)c5)c5ccccc45)CC3)c(=O)c2c1 | inactive | < 4.96 |  |  | 
2 | CN(CCN(C)S(=O)(=O)c1ccccc1)C(=O)c1cn(S(=O)(=O)c2cccc([N+](=O)[O-])c2)c2ccccc12 |  |  | > 300 |  | selectivity ratio [3]: > 112
3 | O=C(c1coc2ccccc2c1=O)N1CCN(C(=O)c2cn(S(=O)(=O)c3ccccc3)c3ccccc23)CC1 | Active | 4.96 | > 20 |  | 
4 | Cc1cc2occ(CN(C)CCN(C)Cc3cn(S(=O)(=O)c4ccccc4)c4ccccc34)c(=O)c2cc1C |  | 5.06 |  |  | Activity (BMMC): Toxic
5 | Cc1ccc2c(=O)c(CN(C)CCN(C)Cc3cn(S(=O)(=O)c4ccccc4)c4ccccc34)coc2c1 | 100% | 5.31 | < 20 |  | 
6 | O=C(c1ccccc1)N1CCN(Cc2cn(-c3cccc(C(F)(F)F)c3)c3ccccc23)CC1 | Active | 4.73 | > 20 |  | 
7 | Nc1cccc(S(=O)(=O)n2cc(C(=O)N3CCN(C(=O)c4coc5ccccc5c4=O)CC3)c3ccccc32)c1 | inactive |  |  | Not Active | 
8 | O=C(c1ccccc1)N1CCN(C(=O)c2cn(-c3cccc(C(F)(F)F)c3)c3ccccc23)CC1 | inactive |  |  | Not Active | 
9 | CN(CCN(C)C(=O)c1cn(S(=O)(=O)c2ccccc2)c2ccccc12)C(=O)c1ccccc1F | Active | 4.90 | > 20 |  | 
10 | O=C(c1cccs1)N1CCN(C(=O)c2c[nH]c3ccc([N+](=O)[O-])cc23)CC1 | inactive | 4.80 |  |  | 
11 | O=C(NCCCCNC(=O)c1cn(S(=O)(=O)c2ccccc2)c2ccccc12)c1ccc2ccccc2c1 | inactive | 4.74 |  |  | 
12 | CN(CCN(C)C(=O)c1cn(-c2cccc(N)c2)c2ccccc12)C(=O)c1coc2ccccc2c1=O | inactive | 4.75 |  |  | 
13 | O=C(c1coc2ccccc2c1=O)N1CCN(Cc2cn(-c3cccc(C(F)(F)F)c3)c3ccccc23)CC1 | Active | 5.07 | > 20 |  | 
14 | O=C(c1ccc2ccccc2c1)N1CCN(C(=O)c2cn(-c3cccc(C(F)(F)F)c3)c3ccccc23)CC1 | inactive |  |  | Not Active | 
15 | Nc1cccc(-n2cc(C(=O)N3CCN(C(=O)C4COc5ccccc5C4=O)CC3)c3cc(N)ccc32)c1 (centres undefined) | inactive |  |  | Not Active | 
16 | O=C(c1coc2ccccc2c1=O)N1CCN(C(=O)c2cn(S(=O)(=O)c3cccc([N+](=O)[O-])c3)c3ccccc23)CC1 | 100% |  | < 20 | Not Active | 
17 | CN(CCN(C)S(=O)(=O)c1cccc([N+](=O)[O-])c1)C(=O)c1cn(S(=O)(=O)c2cccc([N+](=O)[O-])c2)c2ccccc12 |  |  | 18.3 |  | selectivity ratio [3]: 9.5
18 | O=C(c1coc2ccccc2c1=O)N1CCN(Cc2cn(-c3cccc(C(F)(F)F)c3)c3ccc([N+](=O)[O-])cc23)CC1 | 100% |  | < 20 | Not Active | 
19 | O=C(c1coc2ccccc2c1=O)N1CCN(C(=O)c2cn(-c3cccc([N+](=O)[O-])c3)c3ccccc23)CC1 | inactive | < 4.60 |  |  | 
20 | CN(CCN(C)C(=O)c1cn(S(=O)(=O)c2cccc([N+](=O)[O-])c2)c2ccccc12)C(=O)c1coc2ccccc2c1=O | 100% | 5.34 | 32.2 |  | selectivity ratio [3]: 6.3; inhibition [5]: Dose-dependent effect
21 | O=C(c1ccc2ccccc2c1)N1CCN(Cc2cn(-c3cccc(C(F)(F)F)c3)c3ccccc23)CC1 | inactive |  |  | Not Active | 

Row | Compound | inhibition [1] | pKd [2] | CC50 at 48 h [4] [µM] | Kd [2] | further results
22 | O=C(c1ccc2ccccc2c1)N1CCN(C(=O)c2cn(S(=O)(=O)c3ccccc3)c3ccccc23)CC1 | inactive |  |  | Not Active | 
23 | Nc1cccc(-n2cc(C(=O)N3CCN(C(=O)c4coc5ccccc5c4=O)CC3)c3cc(N)ccc32)c1 | Active | 5.03 | > 20 |  | 
24 | Nc1cccc(-n2cc(C(=O)N3CCN(C(=O)c4coc5ccccc5c4=O)CC3)c3ccccc32)c1 | inactive | 4.72 |  |  | 
25 | O=C(c1cn(S(=O)(=O)c2cccc([N+](=O)[O-])c2)c2ccccc12)N1CCN(S(=O)(=O)c2cccc([N+](=O)[O-])c2)CC1 |  |  | 118 |  | selectivity ratio [3]: 18.5
26 | O=C(NCCCNC(=O)c1cn(S(=O)(=O)c2ccccc2)c2ccccc12)c1ccccc1 | inactive |  |  | Not Active | 
27 | O=C(NCCCNC(=O)c1cn(S(=O)(=O)c2ccccc2)c2ccccc12)c1coc2ccccc2c1=O | inactive |  |  | Not Active | 
28 | O=C(c1coc2ccccc2c1=O)N1CCN(C(=O)c2cn(-c3cccc(C(F)(F)F)c3)c3ccc([N+](=O)[O-])cc23)CC1 | inactive |  |  | Not Active | 
29 | O=C(c1cn(-c2cccc(C(F)(F)F)c2)c2ccccc12)N1CCN(C(=O)n2ccnc2)CC1 | Active | 5.27 | < 20 |  | 
30 | CN(CCN(C)S(=O)(=O)c1ccc(C#N)cc1)C(=O)c1cn(S(=O)(=O)c2cccc([N+](=O)[O-])c2)c2ccccc12 |  |  | > 500 |  | selectivity ratio [3]: > 250
31 | O=C(c1ccccc1F)N1CCN(C(=O)c2c[nH]c3ccc([N+](=O)[O-])cc23)CC1 | Active | 4.89 | > 20 |  | 
32 | N#Cc1ccc(S(=O)(=O)N2CCN(C(=O)c3cn(S(=O)(=O)c4cccc([N+](=O)[O-])c4)c4ccccc34)CC2)cc1 |  |  | 52.6 |  | selectivity ratio [3]: 10.4
33 | CN(CCN(C)C(=O)c1cn(-c2cccc(C(F)(F)F)c2)c2ccc([N+](=O)[O-])cc12)C(=O)c1coc2ccccc2c1=O | 100% | 5.55 | < 20 |  | 
34 | Cc1cc2occ(CN3CCN(Cc4cn(-c5cccc(C(F)(F)F)c5)c5ccccc45)CC3)c(=O)c2cc1C | 100% | < 5.00 | < 20 |  | 
35 | Cc1ccc2occ(CN(C)CCN(C)Cc3cn(S(=O)(=O)c4ccccc4)c4ccccc34)c(=O)c2c1 |  | 5.18 |  |  | Activity (BMMC): Toxic
36 | O=C(NCCNC(=O)c1cn(S(=O)(=O)c2ccccc2)c2ccccc12)c1ccc2ccccc2c1 | inactive | 5.45 |  |  | 
37 | CN(CCN(C)C(=O)c1cn(S(=O)(=O)c2cccc(N)c2)c2ccccc12)C(=O)c1coc2ccccc2c1=O | inactive | 4.65 |  |  | 
38 | CN(CCN(C)C(=O)n1ccnc1)C(=O)c1cn(S(=O)(=O)c2ccccc2)c2ccccc12 | inactive |  |  | Not Active | 
39 | Cc1cc2occ(C(=O)N3CCN(C(=O)c4cn(-c5cccc(C(F)(F)F)c5)c5ccccc45)CC3)c(=O)c2cc1C | 100% | 5.34 | < 20 |  | 
40 | CN(CCN(C)C(=O)c1cn(S(=O)(=O)c2ccccc2)c2ccccc12)C(=O)c1ccccc1 | inactive | < 4.82 |  |  | 
41 | O=C(c1ccc2ccccc2c1)N1CCN(Cc2cn(-c3cccc(C(F)(F)F)c3)c3ccc([N+](=O)[O-])cc23)CC1 | Active |  | > 20 | Not Active | 
